Laboratory results reported in patent EP0288278B1, “Chemical derivatives of GHL-CU” (PROCYTE CORPORATION, priority 1987, dated 1994).

Test system: incision wounds
Experiment: Wound healing of incision wounds in mice
Type: in vivo
Settings: incision wounds swabbed daily, scored after 5 days
Text: In mice, incision wounds to the flanks (six 1.5 cm wounds per animal) were swabbed daily with either a solution containing GHL-Cu (100 micrograms per mL) in phosphate-buffered saline (PBS) or PBS alone (6 animals each group). After 5 days, the wounds were scored 1.0 for complete closure, 0.5 for partial closure, and 0.0 for non-closure.

Substance	healing of wounds in mice
glycyl-L-histidyl-L-lysine n-stearyl ester: copper (II)	significantly enhances the wound-healing process
glycyl-L-histidyl-L-lysine n-palmityl ester: copper (II)	significantly enhances the wound-healing process
